Laboratory results: patent US10869931B2, “Polyethylene glycol-modified angiogenesis inhibitor HM-1 and application thereof” (NANJING ANJI BIOLOGICAL TECHNOLOGY CO.,LTD, priority 2016, dated 2020)
Marks after values point to notes of the source that are not given here. Where no end group is shown, it is not given here.

What was measured:
[1] = system: Lung cancer tumor cells; experiment: MTT proliferation inhibition, lung cancer cells; assay type: cell-based, human; parameters: concentration or dose not given beside the values; conditions: 48 h
Protocol: (§1) The activity of mPEG-HM-1 to inhibit the growth of various tumor cells was examined by MTT assay. The tumor cells were cultured to a concentration of 90% or more in a 37° C., 5% CO2 incubator and collected by trypsinization. The cells were resuspended in the culture medium and counted under a microscope to adjust the cell concentration to 2×10^4 cells/mL, the cell suspension was inoculated into a 96-well plate at 100 μL/well and incubated overnight at 37° C. in a 5% CO2 incubator. mPEG-HM-1 was diluted with the culture solution to each predetermined concentration. Docetaxel is diluted to the final concentration with the culture medium. After the cells were fully attached, each dilution was added to a 96-well plate (100 μL/well). The mPEG-HM-1 dilution was added as a drug-administered group, and docetaxel was added as a positive control group, and a culture solution without any drug was used as a negative control group. Incubate for 48 h at 37° C. in a 5% CO2 incubator. 5 mg/mL of MTT was added to a 96-well plate at 20 μL per well, and incubation was continued for 4 hours. The medium was aspirated, dissolved in 150 μL of DMSO per well, and gently mixed by shaking for 10 min. The absorbance was measured at a measurement wavelength of 570 nm and a reference wavelength of 630 nm using a microplate reader, and the rate of growth inhibition (proliferation inhibition, PI) was calculated. The formula is as follows: PI (%)=1−administration group/negative group
(§2) The test was repeated 3 times independently, and the results obtained by the test were expressed as mean±SD, and the test results are shown in Table 15 to Table 18.

[2] = system: Colorectal cancer tumor cells; experiment: MTT proliferation inhibition, colorectal cancer cells; assay type: cell-based, human; parameters: concentration or dose not given beside the values; conditions: 48 h
Protocol: as §1, §2

[3] = system: mouse spleen lymphocytes; experiment: ConA-stimulated mouse spleen lymphocyte proliferation (MTT); assay type: cell-based; conditions: ConA 5 μg/mL, 48 h
Protocol: Tris-NH4Cl was used to break the red blood cells, and the cells were allowed to stand in an ice water bath for 4 min, centrifuged (1000 rpm×5 min), the supernatant was discarded, and the cells were washed twice with sterile PBS. Finally, cells were suspended in RPMI 1640 medium (5 mL) supplemented with 10% calf serum, counted, adjusted to a cell concentration of 5×10^6/mL, and cultured in a 96-well culture plate The test group consisted of blank control group, concanavalin A (ConA) group, dexamethasone (Dex) group (0.02 mg/mL) and mPEG-HM-1 group. […] The cells were cultured in a 37° C. cell culture chamber for 48 h. After the completion of the culture, 20 μL of MTT was added to each well, and the culture was continued for 4 h. Finally, all the solutions in each well were discarded, 100 μL of DMSO was added to each well, and the mixture was shaken and detected by a microplate reader OD value at 570 nm, 5 parallels per hole.

[4] = system: IL-1β production by mouse peritoneal macrophages; experiment: IL-1β production by mouse peritoneal macrophages (ELISA); assay type: cell-based; conditions: 48 h
Protocol: (1) IL-1β production: mice were intraperitoneally injected with 1 mL of broth (containing 6%) starch, and three days later, the mouse peritoneal macrophages were aseptically taken, washed twice with 1640 medium, and the cell concentration was adjusted to 2×10^6 cells/mL, inject into a 24-well culture plate, 1 mL per well, incubate for 3 hours in a cell culture incubator, shake once every 30 minutes, and allow the cells to fully adhere. Then, it was washed twice with the culture solution to remove unattached cells. The blank group was added with PBS, the positive group was added with the positive drug dexamethasone (Dex), the model group was not administered, to the experimental group was added low, medium and high three concentrations of mPEG-HM-1, and the culture was continued for 48 hours after the administration, 1000 r/min. Centrifuge for 15 min. The supernatant was taken as a sample for testing activity of IL-1β.
(2) Determination of IL-1β content: using R&D mouse IL-1β enzyme-linked immunosorbent assay kit, according to the kit instructions as follows: respectively, the tested samples and different concentrations of standard products, sealed with sealing tape the reaction well and incubated at 37° C. for 90 min; the plate was washed four times; the biotinylated antibody working solution (100 μL/well) was added, and the reaction well was sealed with sealing paper, incubated at 37° c. for 60 min; the plate was washed four times; Add the enzyme conjugate working solution (100 μL/well), seal the reaction well with sealing paper, incubate at 37° C. for 30 min; wash the plate four times; add color reagent (100 μL/well), incubate at 37° C. 10-20 min, add stop solution (100 μL/well), mix and measure OD450 value.

[5] = system: xylene-induced ear swelling in Kunming mice; experiment: Xylene-induced ear swelling in mice; assay type: in vivo, mouse; conditions: for Inhibition rate: ear swelling vs control
Protocol: Kunming mice were used. The saline group was used as the blank control group, the aspirin group (200 mg/kg) as the positive control group, and the mPEG-HM-1 administration group as the experimental group. Mice were administered once daily for 5 consecutive days. The blank control group was given an equal volume of physiological saline. One hour after the last administration, 0.05 mL of xylene was applied to both sides of the right ear of the mice to cause inflammation, and the left ear was not coated as normal ears. After 2 h, the mice were sacrificed by dislocation, and the ears were cut along the auricle. Ear pieces were taken with a puncher, weighed, and the swelling degree and swelling rate were calculated. Swelling degree=right ear piece weight-left ear piece weight, swelling rate=(swelling degree/left ear piece weight)×100%. Statistical t-test was performed on the test results, *P<0.05 was a significant difference, and **P<0.01 was a very significant difference. See Table 31 to Table 34 for the results.

[6] = system: retinal neovascular clusters in OIR C57/B16 mice; experiment: Retinal blood vessels in OIR mice; assay type: in vivo, mouse; conditions: for Neovascular clusters area: retina evaluated on day 17; for Inhibition rate: neovascular clusters area vs control, day 17
Excerpt: Establishment of the OIR model: Exposure of young mouse and their mothers to 75% hyperoxic environment from day 7 to day 12 after birth of C57/B16 mice caused rapid disappearance of capillaries in the central retina. Upon returning to the indoor air on the 12th day, the retinal blood vessels, upon exposing to hyperoxia, rapidly disappeared, causing extensive abnormal neovascularization, and the central portion of the retina remained largely avascular for a long time. After the blood vessels disappeared completely, on the 13th day, physiological saline (negative control group), mPEG-SC-HM-1, mPEG2-NHS-HM-1, mPEG-ALD10k-HM-1, and mPEG-bALD-HM-1, were administered by intravitreal injection and retinal vessels were evaluated on day 17 (to label unclosed vessels, […] of Texas Red-labeled tomato lectin was injected into the left ventricle and circulated for 5 min).

[7] = 10 mg/kg once daily for 5 days, 2 h after xylene
[8] = 20 mg/kg once daily for 5 days, 2 h after xylene
[9] = 40 mg/kg once daily for 5 days, 2 h after xylene
[10] = 80 mg/kg once daily for 5 days, 2 h after xylene

Row | Substance | rate of growth inhibition [1] [%] | rate of growth inhibition [2] [%] | A570 nm/A630 nm ([3]; 10 μg/mL) | Inhibition Rate of spleen lymphocyte proliferation ([3]; 10 μg/mL) [%] | A570 nm/A630 nm ([3]; 20 μg/mL) | Inhibition Rate of spleen lymphocyte proliferation ([3]; 20 μg/mL) [%] | IL-1β ([4]; 10 μg/mL) [pg/mL] | Inhibition Rate of IL-1β production ([4]; 10 μg/mL) [%] | IL-1β ([4]; 20 μg/mL) [pg/mL] | Inhibition Rate of IL-1β production ([4]; 20 μg/mL) [%] | Swelling [5, 7] | Inhibition rate ([5]; 10 mg/kg once daily for 5 days) [%] | Swelling [5, 8] | Inhibition rate ([5]; 20 mg/kg once daily for 5 days) [%] | A570 nm/A630 nm ([3]; 40 μg/mL) | Inhibition Rate of spleen lymphocyte proliferation ([3]; 40 μg/mL) [%] | IL-1β ([4]; 40 μg/mL) [pg/mL] | Inhibition Rate of IL-1β production ([4]; 40 μg/mL) [%] | Swelling [5, 9] | Inhibition rate ([5]; 40 mg/kg once daily for 5 days) [%] | other results
1 | mPEG2-NHS5k-Arg-Gly-Ala-Asp-Arg-Ala-Gly-Gly-Gly-Gly-Arg-Gly-Asp ({mPEG2‑NHS 5 kDa}-RGADRAGGGGRGD) [mPEG2-NHS5k-HM-1] | 42.83 ± 12.58 | 52.37 ± 12.24 | 0.5624 ± 0.1098 | 18.78 | 0.4873 ± 0.1126 | 29.62 | 681.45 ± 12.09 | 26.42 | 563.37 ± 13.21 | 39.17 | 4.94 ± 0.28* mg | 20.05 | 4.31 ± 0.20** mg | 30.23 | – | – | – | – | – | – | A570 nm/A630 nm ([3]; 5 μg/mL): 0.6304 ± 0.0983; Inhibition Rate of spleen lymphocyte proliferation ([3]; 5 μg/mL): 8.96%; IL-1β ([4]; 5 μg/mL): 763.97 ± 15.46 pg/mL; Inhibition Rate of IL-1β production ([4]; 5 μg/mL): 17.51%; Inhibition rate ([5]; 5 mg/kg once daily for 5 days): 10.02%; Swelling ([5]; 5 mg/kg once daily for 5 days, right minus left ear piece weight 2 h after xylene): 5.56 ± 0.19 mg; Neovascular clusters area ([6]; 25 μg intravitreal injection on day 13): 0.119 ± 0.007 mm^2; Inhibition rate ([6]; 25 μg intravitreal): 46.35%*
2 | mPEG2-NHS10k-Arg-Gly-Ala-Asp-Arg-Ala-Gly-Gly-Gly-Gly-Arg-Gly-Asp ({mPEG2‑NHS 10 kDa}-RGADRAGGGGRGD) [mPEG2-NHS10k-HM-1] | 45.28 ± 13.96 | 55.78 ± 15.77 | 0.6239 ± 0.1086 | 9.90 | 0.5533 ± 0.1067 | 20.09 | 758.32 ± 15.18 | 18.12 | 675.25 ± 11.93 | 27.09 | 5.39 ± 0.14 mg | 12.76 | 4.72 ± 0.72* mg | 23.57 | 0.4747 ± 0.1174 | 31.44 | 546.79 ± 14.12 | 40.96 | 4.13 ± 0.35** mg | 33.19 | Neovascular clusters area ([6]; 50 μg intravitreal injection on day 13): 0.100 ± 0.006 mm^2; Inhibition rate ([6]; 50 μg intravitreal): 54.63%**; inhibition rate of retinal neovascular clusters ([6]; OIR mice, 50 μg intravitreal injection, evaluated day 17): 54.63%
3 | mPEG2-NHS20k-Arg-Gly-Ala-Asp-Arg-Ala-Gly-Gly-Gly-Gly-Arg-Gly-Asp ({mPEG2‑NHS 20 kDa}-RGADRAGGGGRGD) [mPEG2-NHS20k-HM-1] | 50.82 ± 12.68 | 58.16 ± 20.36 | – | – | 0.6082 ± 0.0990 | 12.16 | – | – | 759.06 ± 16.96 | 18.04 | – | – | 5.52 ± 0.16 mg | 10.65 | 0.4879 ± 0.1156 | 29.53 | 655.24 ± 18.59 | 29.25 | 4.80 ± 0.29* mg | 22.37 | A570 nm/A630 nm ([3]; 80 μg/mL): 0.4375 ± 0.1095; Inhibition Rate of spleen lymphocyte proliferation ([3]; 80 μg/mL): 36.82%; IL-1β ([4]; 80 μg/mL): 552.35 ± 10.50 pg/mL; Inhibition Rate of IL-1β production ([4]; 80 μg/mL): 40.36%; Swelling [5, 10]: 3.96 ± 0.22** mg; Inhibition rate ([5]; 80 mg/kg once daily for 5 days): 35.92%; Neovascular clusters area ([6]; 100 μg intravitreal injection on day 13): 0.112 ± 0.011 mm^2; Inhibition rate ([6]; 100 μg intravitreal): 49.27%**
4 | mPEG2-NHS40k-Arg-Gly-Ala-Asp-Arg-Ala-Gly-Gly-Gly-Gly-Arg-Gly-Asp ({mPEG2‑NHS 40 kDa}-RGADRAGGGGRGD) [mPEG2-NHS40k-HM-1] | 49.39 ± 16.55 | 54.40 ± 18.29 | – | – | – | – | – | – | – | – | – | – | – | – | 0.6191 ± 0.0984 | 10.59 | 756.84 ± 15.32 | 18.28 | 5.47 ± 0.12 mg | 11.52 | A570 nm/A630 nm ([3]; 80 μg/mL): 0.4985 ± 0.1248; Inhibition Rate of spleen lymphocyte proliferation ([3]; 80 μg/mL): 28.01%; A570 nm/A630 nm ([3]; 160 μg/mL): 0.4827 ± 0.1136; Inhibition Rate of spleen lymphocyte proliferation ([3]; 160 μg/mL): 30.28%; IL-1β ([4]; 80 μg/mL): 673.30 ± 16.71 pg/mL; Inhibition Rate of IL-1β production ([4]; 80 μg/mL): 27.30%; IL-1β ([4]; 160 μg/mL): 568.00 ± 10.82 pg/mL; Inhibition Rate of IL-1β production ([4]; 160 μg/mL): 38.67%; Swelling [5, 10]: 4.83 ± 0.67* mg; Inhibition rate ([5]; 80 mg/kg once daily for 5 days): 21.88%; Swelling ([5]; 160 mg/kg once daily for 5 days, 2 h after xylene): 4.19 ± 0.34** mg; Inhibition rate ([5]; 160 mg/kg once daily for 5 days): 32.26%; Neovascular clusters area ([6]; 200 μg intravitreal injection on day 13): 0.120 ± 0.008 mm^2; Inhibition rate ([6]; 200 μg intravitreal): 45.92%*
